# Results: ChEMBL document CHEMBL1127135, “Synthesis and biological properties of 3-[()-2-(1,2,3-Thiadiazolyl)ethenyl]-substituted cephalosporins and related compounds: new oral cephalosporins” (Bioorg Med Chem Lett, 1993)
# Columns and labels:
# Escherichia coli [1] = assay: Antibacterial activity against Escherichia coli ATCC 25922 was determined; assay type: functional
# Staphylococcus aureus [2] = assay: Antibacterial activity against Staphylococcus aureus 209P-JC was determined; assay type: functional
# Serratia marcescens = assay: Antibacterial activity against Serratia marcescens IID 618 was determined; assay type: functional
# Klebsiella pneumoniae [3] = assay: Antibacterial activity against Klebsiella pneumoniae IFO 3317 was determined; assay type: functional
# [4] = tested on: Staphylococcus epidermidis; assay: Antibacterial activity against Staphylococcus epidermidis IID 866 was determined; assay type: functional
# Micrococcus luteus [5] = assay: Antibacterial activity against Micrococcus luteus ATCC 9341 was determined; assay type: functional
# Pseudomonas aeruginosa = assay: Antibacterial activity against Pseudomonas aeruginosa NCTC 10490 was determined; assay type: functional
# Proteus vulgaris = assay: Antibacterial activity against Proteus vulgaris HX-19 was determined; assay type: functional
# Klebsiella aerogenes = assay: Antibacterial activity against Enterobacter aerogenes IFO 13048 was determined; assay type: functional
# Escherichia coli [6] = assay: Antibacterial activity against Escherichia coli NIHJ JC-2 was determined; assay type: functional
# Enterobacter cloacae = assay: Antibacterial activity against Enterobacter cloacae 963 was determined; assay type: functional
# Morganella morganii [7] = assay: Antibacterial activity against Morganella morganii IID 602 was determined; assay type: functional
# Staphylococcus aureus [8] = assay: Antibacterial activity against Staphylococcus aureus ATCC 25923 was determined; assay type: functional
# Enterococcus hirae = assay: Antibacterial activity against Enterococcus hirae ATCC 8043 was determined; assay type: functional
# Staphylococcus aureus [9] = assay: Antibacterial activity against Staphylococcus aureus Smith was determined; assay type: functional
# Proteus mirabilis = assay: Antibacterial activity against Proteus mirabilis IFO3849 was determined; assay type: functional
# Moraxella catarrhalis [10] = assay: Antibacterial activity against M(B). catarrhalis AtCC 25238 was determined; assay type: functional
# Providencia rettgeri = assay: Antibacterial activity against Providencia rettgeri IFO3850 was determined; assay type: functional
# [11] = Evaluated for pharmacokinetic parameter area under curve in mouse at the dose 20 mg/kg (0-4 hr ); assay type: ADME, organism-based; design: time < 4 hr, dose 20 mg/kg; conditions: in vivo
# Haemophilus influenzae = assay: Antibacterial activity against Haemophilus influenzae ATCC 19418 was determined; assay type: functional
# [12] = Evaluated for pharmacokinetic parameter area under curve in rabbit at the dose 20 mg/kg (0-4 hr ); assay type: ADME, organism-based, Oryctolagus cuniculus; design: time < 4 hr, dose 20 mg/kg; conditions: in vivo
# [13] = Evaluated for pharmacokinetic parameter Cmax in mouse at the dose 20 mg/kg; assay type: ADME, organism-based; design: dose 20 mg/kg; conditions: in vivo
# Streptococcus pneumoniae = assay: Antibacterial activity against Streptococcus pneumoniae IID 553 was determined; assay type: functional
# [14] = Evaluated for pharmacokinetic parameter tmax in rat at the dose 50 mg/kg; assay type: ADME, organism-based; design: dose 50 mg/kg; conditions: in vivo
# [15] = Evaluated for pharmacokinetic parameter half-life in mouse at the dose 20 mg/kg; assay type: ADME, organism-based; design: dose 20 mg/kg; conditions: in vivo
# [16] = Evaluated for pharmacokinetic parameter urine recovery in mouse at the dose 20 mg/kg (0-24 hr); assay type: ADME, organism-based; design: dose 20 mg/kg; conditions: read-out: UR
# Moraxella catarrhalis [17] = assay: Antibacterial activity against M(B). catarrhalis ATCC 25238 was determined; assay type: functional
# [18] = Evaluated for pharmacokinetic parameter urine recovery in rat at the dose 50 mg/kg (0-24 hr); assay type: ADME, organism-based; design: dose 50 mg/kg; conditions: read-out: UR
# [19] = Evaluated for pharmacokinetic parameter area under curve in rat at the dose 50 mg/kg (0-8 hr ); assay type: ADME, organism-based; design: time < 8 hr, dose 50 mg/kg; conditions: in vivo
# [20] = Evaluated for pharmacokinetic parameter tmax in mouse at the dose 20 mg/kg was determined; assay type: ADME, organism-based; design: dose 20 mg/kg; conditions: in vivo
# [21] = Evaluated for pharmacokinetic parameter Cmax in rabbit at the dose 20 mg/kg; assay type: ADME, organism-based, Oryctolagus cuniculus; design: dose 20 mg/kg; conditions: in vivo
# [22] = Evaluated for pharmacokinetic parameter Cmax in rat at the dose 50 mg/kg; assay type: ADME, organism-based; design: dose 50 mg/kg; conditions: in vivo
# [23] = Evaluated for pharmacokinetic parameter half-life in rabbit at the dose 20 mg/kg; assay type: ADME, organism-based, Oryctolagus cuniculus; design: dose 20 mg/kg; conditions: in vivo
# [24] = Evaluated for pharmacokinetic parameter urine recovery in rabbit at the dose 20 mg/kg (0-24 hr); assay type: ADME, organism-based, Oryctolagus cuniculus; design: dose 20 mg/kg; conditions: read-out: UR
# [25] = Evaluated for pharmacokinetic parameter half-life in rat at the dose 50 mg/kg; assay type: ADME, organism-based; design: dose 50 mg/kg; conditions: in vivo
# Morganella morganii [26] = assay: Antibacterial activity against Morganella morganii IID 602; assay type: functional
# [27] = Evaluated for pharmacokinetic parameter tmax in rabbit at the dose 20 mg/kg; assay type: ADME, organism-based, Oryctolagus cuniculus; design: dose 20 mg/kg; conditions: in vivo
# [28] = Evaluated for pharmacokinetic parameter urine recovery in mouse at the dose 20 mg/kg ( 0-24 hr ); assay type: ADME, organism-based; design: dose 20 mg/kg; conditions: read-out: UR
# [29] = Evaluated for pharmacokinetic parameter urine recovery in rat at the dose 50 mg/kg ( 0-24 hr ); assay type: ADME, organism-based; design: dose 50 mg/kg; conditions: read-out: UR
# Klebsiella pneumoniae [30] = assay: Antibacterial activity against Klebsiella pneumoniae IFO 331 was determined; assay type: functional
# [31] = Evaluated for pharmacokinetic parameter area under curve in mouse at the dose 20 mg/kg (0-4 hr); assay type: ADME, organism-based; design: time < 4 hr, dose 20 mg/kg; conditions: in vivo
# [32] = Evaluated for pharmacokinetic parameter area under curve in rat at the dose 50 mg/kg (0-8 hr); assay type: ADME, organism-based; design: time < 8 hr, dose 50 mg/kg; conditions: in vivo
# [33] = Evaluated for pharmacokinetic parameter tmax in mouse at the dose 20 mg/kg; assay type: ADME, organism-based; design: dose 20 mg/kg; conditions: in vivo
# Micrococcus luteus [34] = assay: Antibacterial activity against Micrococcus […] determined; assay type: functional
# [35] = Evaluated for pharmacokinetic parameter urine recovery in rabbit at the dose 20 mg/kg ( 0-24 hr ); assay type: ADME, organism-based, Oryctolagus cuniculus; design: dose 20 mg/kg; conditions: read-out: UR
MIC (Escherichia coli [1]) [µg/mL],MIC (Staphylococcus aureus [2]) [µg/mL],MIC (Serratia marcescens) [µg/mL],MIC (Klebsiella pneumoniae [3]) [µg/mL],MIC [4] [µg/mL],MIC (Micrococcus luteus [5]) [µg/mL],MIC (Pseudomonas aeruginosa) [µg/mL],MIC (Proteus vulgaris) [µg/mL],MIC (Klebsiella aerogenes) [µg/mL],MIC (Escherichia coli [6]) [µg/mL],MIC (Enterobacter cloacae) [µg/mL],MIC (Morganella morganii [7]) [µg/mL],MIC (Staphylococcus aureus [8]) [µg/mL],MIC (Enterococcus hirae) [µg/mL],MIC (Staphylococcus aureus [9]) [µg/mL],MIC (Proteus mirabilis) [µg/mL],MIC (Providencia rettgeri) [µg/mL],MIC (Haemophilus influenzae) [µg/mL],AUC at 4 h [12] [ng·h/mL],MIC (Moraxella catarrhalis [17]) [µg/mL],Structure (SMILES),further results
0.39,0.78,0.39,0.012,0.2,0.05,50,≤ 0.006,0.78,0.39,0.39,0.1,0.78,100,0.39,0.1,≤ 0.006,,,,CO/N=C(\C(=O)NC1C(=O)N2C(C(=O)O)=C(/C=C\c3csnn3)CSC12)c1csc(N)n1 (stereo unspecified),MIC (Moraxella catarrhalis [10]): 0.025 µg/mL
0.1,0.1,0.39,0.012,0.05,0.012,> 100,0.05,0.2,0.1,0.2,,0.39,12.5,0.1,0.05,≤ 0.006,0.05,9700,0.05,Nc1nc(/C(=N/O)C(=O)NC2C(=O)N3C(C(=O)O)=C(/C=C\c4csnn4)CSC23)cs1 (stereo unspecified),AUC at 4 h [11]: 4700 ng·h/mL; Cmax [13]: 1500 ng/mL; MIC (Streptococcus pneumoniae): 0.05 µg/mL; Tmax [14]: 2 h; half-life [15]: 0.7 h; dose excreted [16]: 1.9%; dose excreted [18]: 3.5%; AUC at 8 h [19]: 19800 ng·h/mL; Tmax [20]: 2 h; Cmax [21]: 2000 ng/mL; Cmax [22]: 6000 ng/mL; half-life [23]: 2.2 h; dose excreted [24]: 17.4%; half-life [25]: 4.4 h; MIC (Morganella morganii [26]): 0.025 µg/mL; Tmax [27]: 2 h
0.39,0.78,0.39,0.025,0.39,0.025,12.5,≤ 0.006,0.78,0.39,0.78,0.2,0.78,> 100,0.78,0.39,0.025,,,≤ 0.006,CO/N=C(\C(=O)NC1C(=O)N2C(C(=O)O)=C(/C=C\c3scnc3C)CSC12)c1csc(N)n1 (stereo unspecified),
0.39,0.39,1.56,,0.1,,> 100,0.39,1.56,0.39,0.78,6.25,0.39,100,0.2,0.2,≤ 0.006,0.39,64200,0.2,C=CC1=C(C(=O)O)N2C(=O)[C@@H](NC(=O)/C(=N\O)c3csc(N)n3)[C@H]2SC1 [CEFDINIR],dose excreted [28]: 10%; dose excreted [29]: 13.2%; Cmax [13]: 2500 ng/mL; MIC (Streptococcus pneumoniae): 0.1 µg/mL; MIC (Klebsiella pneumoniae [30]): 0.1 µg/mL; AUC at 4 h [31]: 10000 ng·h/mL; AUC at 8 h [32]: 13200 ng·h/mL; Tmax [14]: 2 h; half-life [15]: 0.6 h; Tmax [33]: 1 h; MIC (Micrococcus luteus [34]): 0.05 µg/mL; Cmax [21]: 5800 ng/mL; dose excreted [35]: 64.2%; Cmax [22]: 6000 ng/mL; half-life [23]: 1.9 h; half-life [25]: 1.5 h; Tmax [27]: 1 h
